Test results reported in ChEMBL document CHEMBL4507275, “Data for DCP probe BI-2545” (2021).

Columns and labels:
[1] = system: Fibroblast growth factor receptor 3 (Homo sapiens), P22607 [G697C]; settings: Compound concentration 1000.0 nM
[2] = system: Tyrosine-protein kinase ABL1 (Homo sapiens), P00519 [H396P]; settings: Compound concentration 1000.0 nM
[3] = target: Cyclin-dependent kinase 17 (Homo sapiens) (UniProt Q00537); settings: Compound concentration 1000.0 nM
[4] = target: Casein kinase I isoform delta (Homo sapiens) (UniProt P48730); settings: Compound concentration 1000.0 nM
[5] = target: Fibroblast growth factor receptor 2 (Homo sapiens) (UniProt P21802); settings: Compound concentration 1000.0 nM
[6] = target: Cyclin-dependent kinase 16 (Homo sapiens) (UniProt Q00536); settings: Compound concentration 1000.0 nM
[7] = target: Rho-associated protein kinase 1 (Homo sapiens) (UniProt Q13464); settings: Compound concentration 1000.0 nM
[8] = target: Ephrin type-B receptor 3 (Homo sapiens) (UniProt P54753); settings: Compound concentration 1000.0 nM
[9] = target: T1, 5-hydroxytryptamine receptor 3A (Homo sapiens) (UniProt P46098); settings: Compound concentration 10.0 uM
T1 sequence (whole entry): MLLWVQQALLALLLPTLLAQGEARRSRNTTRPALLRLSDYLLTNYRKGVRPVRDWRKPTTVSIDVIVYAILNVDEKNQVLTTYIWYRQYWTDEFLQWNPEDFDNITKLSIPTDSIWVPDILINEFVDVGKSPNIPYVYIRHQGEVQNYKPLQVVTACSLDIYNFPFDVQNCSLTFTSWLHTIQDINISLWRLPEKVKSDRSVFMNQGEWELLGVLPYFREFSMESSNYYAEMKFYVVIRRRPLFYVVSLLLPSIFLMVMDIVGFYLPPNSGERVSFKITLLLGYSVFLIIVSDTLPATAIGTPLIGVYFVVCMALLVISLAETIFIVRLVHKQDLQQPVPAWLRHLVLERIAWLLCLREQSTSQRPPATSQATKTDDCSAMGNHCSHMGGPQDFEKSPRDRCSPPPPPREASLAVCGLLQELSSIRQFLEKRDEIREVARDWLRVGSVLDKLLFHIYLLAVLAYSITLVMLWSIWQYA

[10] = target: Histamine H3 receptor (Homo sapiens) (UniProt Q9Y5N1); settings: Compound concentration 10.0 uM
[11] = target: 5-hydroxytryptamine receptor 7 (Homo sapiens) (UniProt P34969); settings: Compound concentration 10.0 uM
[12] = target: Rhodopsin kinase GRK1 (Homo sapiens) (UniProt Q15835); settings: Compound concentration 1000.0 nM
[13] = system: Tyrosine-protein kinase ABL1 (Homo sapiens), P00519 [T315I]; settings: Compound concentration 1000.0 nM
[14] = target: Ephrin type-A receptor 1 (Homo sapiens) (UniProt P21709); settings: Compound concentration 1000.0 nM
[15] = target: TGF-beta receptor type-1 (Homo sapiens) (UniProt P36897); settings: Compound concentration 1000.0 nM
[16] = target: Calcium/calmodulin-dependent protein kinase type II subunit delta (Homo sapiens) (UniProt Q13557); settings: Compound concentration 1000.0 nM
[17] = target: Leucine-rich repeat serine/threonine-protein kinase 2 (Homo sapiens) (UniProt Q5S007); settings: Compound concentration 1000.0 nM
[18] = target: Serine/threonine-protein kinase OSR1 (Homo sapiens) (UniProt O95747); settings: Compound concentration 1000.0 nM
[19] = target: STE20-like serine/threonine-protein kinase (Homo sapiens) (UniProt Q9H2G2); settings: Compound concentration 1000.0 nM
[20] = target: Calcium/calmodulin-dependent protein kinase kinase 2 (Homo sapiens) (UniProt Q96RR4); settings: Compound concentration 1000.0 nM
[21] = target: MAP kinase-activated protein kinase 2 (Homo sapiens) (UniProt P49137); settings: Compound concentration 1000.0 nM
[22] = target: Serine/threonine-protein kinase PLK2 (Homo sapiens) (UniProt Q9NYY3); settings: Compound concentration 1000.0 nM
[23] = target: Serine/threonine-protein kinase 36 (Homo sapiens) (UniProt Q9NRP7); settings: Compound concentration 1000.0 nM
[24] = target: Serine/threonine-protein kinase 32C (Homo sapiens) (UniProt Q86UX6); settings: Compound concentration 1000.0 nM
[25] = target: Serine/threonine-protein kinase PknB (Mycobacterium tuberculosis) (UniProt P9WI81); settings: Compound concentration 1000.0 nM
[26] = target: LIM domain kinase 1 (Homo sapiens) (UniProt P53667); settings: Compound concentration 1000.0 nM
[27] = target: Cyclin-dependent kinase 18 (Homo sapiens) (UniProt Q07002); settings: Compound concentration 1000.0 nM
[28] = system: Receptor-type tyrosine-protein kinase FLT3 (Homo sapiens), P36888 [D835V]; settings: Compound concentration 1000.0 nM
[29] = target: Myotonin-protein kinase (Homo sapiens) (UniProt Q09013); settings: Compound concentration 1000.0 nM
[30] = target: Mitogen-activated protein kinase 6 (Homo sapiens) (UniProt Q16659); settings: Compound concentration 1000.0 nM
[31] = system: Receptor-type tyrosine-protein kinase FLT3 (Homo sapiens), P36888 [K663Q]; settings: Compound concentration 1000.0 nM
[32] = target: Cyclin-dependent kinase 3 (Homo sapiens) (UniProt Q00526); settings: Compound concentration 1000.0 nM
[33] = target: Tyrosine-protein kinase receptor UFO (Homo sapiens) (UniProt P30530); settings: Compound concentration 1000.0 nM
[34] = target: Serine/threonine-protein kinase PAK 3 (Homo sapiens) (UniProt O75914); settings: Compound concentration 1000.0 nM
[35] = target: Tyrosine-protein kinase ITK/TSK (Homo sapiens) (UniProt Q08881); settings: Compound concentration 1000.0 nM
[36] = target: Serine/threonine-protein kinase RIO2 (Homo sapiens) (UniProt Q9BVS4); settings: Compound concentration 1000.0 nM
[37] = system: Proto-oncogene tyrosine-protein kinase receptor Ret (Homo sapiens), P07949 [M918T]; settings: Compound concentration 1000.0 nM
[38] = target: Serine/threonine-protein kinase DCLK2 (Homo sapiens) (UniProt Q8N568); settings: Compound concentration 1000.0 nM
[39] = target: Mitogen-activated protein kinase 14 (Homo sapiens) (UniProt Q16539); settings: Compound concentration 1000.0 nM

Sequence of Cyclin-dependent kinase 18 (Homo sapiens) (Q07002 whole entry): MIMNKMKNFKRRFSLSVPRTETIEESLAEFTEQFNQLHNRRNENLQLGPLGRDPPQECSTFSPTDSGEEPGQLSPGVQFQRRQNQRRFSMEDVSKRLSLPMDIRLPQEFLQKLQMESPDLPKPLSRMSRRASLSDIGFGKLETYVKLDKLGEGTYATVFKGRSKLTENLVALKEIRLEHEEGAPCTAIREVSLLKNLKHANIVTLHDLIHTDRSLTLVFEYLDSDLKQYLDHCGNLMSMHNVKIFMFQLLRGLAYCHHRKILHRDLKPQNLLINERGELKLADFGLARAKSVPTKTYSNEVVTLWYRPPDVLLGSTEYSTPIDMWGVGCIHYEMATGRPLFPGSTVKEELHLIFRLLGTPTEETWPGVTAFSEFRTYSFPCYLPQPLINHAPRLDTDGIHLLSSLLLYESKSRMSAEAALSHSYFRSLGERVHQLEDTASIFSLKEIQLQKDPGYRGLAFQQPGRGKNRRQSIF
Sequence of Serine/threonine-protein kinase OSR1 (Homo sapiens) (O95747 2-527 limits assumed): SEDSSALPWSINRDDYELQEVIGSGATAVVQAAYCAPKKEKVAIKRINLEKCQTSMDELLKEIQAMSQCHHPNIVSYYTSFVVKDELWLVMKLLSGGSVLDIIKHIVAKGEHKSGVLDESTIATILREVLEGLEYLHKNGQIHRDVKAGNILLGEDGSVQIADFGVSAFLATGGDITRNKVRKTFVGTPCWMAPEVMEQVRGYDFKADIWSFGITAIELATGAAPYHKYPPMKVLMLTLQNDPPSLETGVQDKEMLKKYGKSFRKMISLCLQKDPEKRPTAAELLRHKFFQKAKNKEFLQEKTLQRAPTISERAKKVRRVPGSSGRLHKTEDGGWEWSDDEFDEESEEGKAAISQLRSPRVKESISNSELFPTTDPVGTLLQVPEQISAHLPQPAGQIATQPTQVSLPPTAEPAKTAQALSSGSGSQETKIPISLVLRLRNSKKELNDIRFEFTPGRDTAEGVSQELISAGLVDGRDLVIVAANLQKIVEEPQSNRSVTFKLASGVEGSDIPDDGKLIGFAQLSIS
Sequence of Rho-associated protein kinase 1 (Homo sapiens) (Q13464 2-1354 limits assumed): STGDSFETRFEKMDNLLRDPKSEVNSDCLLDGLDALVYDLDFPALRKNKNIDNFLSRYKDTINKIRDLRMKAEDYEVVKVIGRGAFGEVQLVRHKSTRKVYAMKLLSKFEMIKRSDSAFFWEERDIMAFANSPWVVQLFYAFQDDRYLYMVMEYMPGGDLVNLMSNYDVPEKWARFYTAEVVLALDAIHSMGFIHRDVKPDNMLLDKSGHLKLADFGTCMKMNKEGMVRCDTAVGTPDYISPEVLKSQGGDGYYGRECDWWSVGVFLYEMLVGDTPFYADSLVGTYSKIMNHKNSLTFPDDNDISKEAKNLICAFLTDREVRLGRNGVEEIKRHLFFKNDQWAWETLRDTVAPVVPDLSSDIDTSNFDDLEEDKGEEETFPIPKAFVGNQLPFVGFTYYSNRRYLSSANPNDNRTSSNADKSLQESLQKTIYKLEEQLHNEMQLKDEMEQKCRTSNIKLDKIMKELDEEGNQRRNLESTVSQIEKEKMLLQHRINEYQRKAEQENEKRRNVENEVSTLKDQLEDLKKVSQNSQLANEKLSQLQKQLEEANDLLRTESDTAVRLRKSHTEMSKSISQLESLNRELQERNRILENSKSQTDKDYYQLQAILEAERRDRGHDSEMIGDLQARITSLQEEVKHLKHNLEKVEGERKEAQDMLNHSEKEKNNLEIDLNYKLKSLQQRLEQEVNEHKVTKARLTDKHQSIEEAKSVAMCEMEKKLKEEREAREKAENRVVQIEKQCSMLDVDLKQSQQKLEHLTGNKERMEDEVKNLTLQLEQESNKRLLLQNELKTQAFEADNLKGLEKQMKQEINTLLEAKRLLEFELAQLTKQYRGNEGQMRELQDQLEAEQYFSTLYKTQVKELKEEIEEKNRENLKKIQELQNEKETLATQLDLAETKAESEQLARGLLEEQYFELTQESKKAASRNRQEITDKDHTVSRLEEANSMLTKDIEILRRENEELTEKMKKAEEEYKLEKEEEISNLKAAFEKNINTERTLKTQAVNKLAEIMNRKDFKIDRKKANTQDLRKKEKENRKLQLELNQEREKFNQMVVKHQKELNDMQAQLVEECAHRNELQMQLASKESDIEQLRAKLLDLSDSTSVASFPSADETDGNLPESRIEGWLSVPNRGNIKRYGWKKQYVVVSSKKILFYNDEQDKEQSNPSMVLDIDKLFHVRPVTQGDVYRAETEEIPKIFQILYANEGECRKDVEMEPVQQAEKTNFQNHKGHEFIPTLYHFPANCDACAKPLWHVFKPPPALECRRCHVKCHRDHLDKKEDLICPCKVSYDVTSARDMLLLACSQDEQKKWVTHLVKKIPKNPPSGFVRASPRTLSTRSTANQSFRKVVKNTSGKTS
Sequence of Serine/threonine-protein kinase DCLK2 (Homo sapiens) (Q8N568 whole entry): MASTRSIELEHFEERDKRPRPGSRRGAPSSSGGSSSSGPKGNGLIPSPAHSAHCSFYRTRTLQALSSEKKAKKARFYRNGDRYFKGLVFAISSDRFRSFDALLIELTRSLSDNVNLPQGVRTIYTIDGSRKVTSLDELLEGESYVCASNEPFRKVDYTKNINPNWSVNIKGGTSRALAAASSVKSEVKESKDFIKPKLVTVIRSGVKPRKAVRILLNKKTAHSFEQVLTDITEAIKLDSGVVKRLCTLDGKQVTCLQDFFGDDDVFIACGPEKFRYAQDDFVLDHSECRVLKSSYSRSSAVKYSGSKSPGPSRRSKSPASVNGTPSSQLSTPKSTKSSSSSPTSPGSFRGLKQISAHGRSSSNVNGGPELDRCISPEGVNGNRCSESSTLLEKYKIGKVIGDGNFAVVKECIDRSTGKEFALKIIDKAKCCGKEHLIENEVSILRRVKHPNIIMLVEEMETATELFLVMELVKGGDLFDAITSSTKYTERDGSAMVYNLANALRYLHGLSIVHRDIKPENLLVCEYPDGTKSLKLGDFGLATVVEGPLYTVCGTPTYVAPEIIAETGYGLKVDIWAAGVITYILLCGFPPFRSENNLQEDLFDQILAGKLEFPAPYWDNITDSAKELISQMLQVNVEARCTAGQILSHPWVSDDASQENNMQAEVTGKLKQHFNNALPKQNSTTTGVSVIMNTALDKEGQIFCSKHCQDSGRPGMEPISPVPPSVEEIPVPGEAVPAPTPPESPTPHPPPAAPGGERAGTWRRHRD
Sequence of Rhodopsin kinase GRK1 (Homo sapiens) (Q15835 whole entry): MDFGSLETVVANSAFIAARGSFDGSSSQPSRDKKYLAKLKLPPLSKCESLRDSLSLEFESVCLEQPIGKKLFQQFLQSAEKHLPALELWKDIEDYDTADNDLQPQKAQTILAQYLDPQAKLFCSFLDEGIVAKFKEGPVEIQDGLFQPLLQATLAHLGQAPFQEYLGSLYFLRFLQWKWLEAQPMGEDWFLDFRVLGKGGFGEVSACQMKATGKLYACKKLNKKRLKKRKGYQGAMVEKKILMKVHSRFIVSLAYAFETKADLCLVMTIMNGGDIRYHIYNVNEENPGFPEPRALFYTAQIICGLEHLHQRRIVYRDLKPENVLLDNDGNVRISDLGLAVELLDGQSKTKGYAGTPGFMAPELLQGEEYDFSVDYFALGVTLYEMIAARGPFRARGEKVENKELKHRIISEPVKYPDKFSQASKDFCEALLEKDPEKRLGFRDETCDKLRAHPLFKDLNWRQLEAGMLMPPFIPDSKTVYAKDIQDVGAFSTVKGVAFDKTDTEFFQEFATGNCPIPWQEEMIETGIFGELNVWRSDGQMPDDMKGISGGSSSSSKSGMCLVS
Sequence of Tyrosine-protein kinase ITK/TSK (Homo sapiens) (Q08881 whole entry): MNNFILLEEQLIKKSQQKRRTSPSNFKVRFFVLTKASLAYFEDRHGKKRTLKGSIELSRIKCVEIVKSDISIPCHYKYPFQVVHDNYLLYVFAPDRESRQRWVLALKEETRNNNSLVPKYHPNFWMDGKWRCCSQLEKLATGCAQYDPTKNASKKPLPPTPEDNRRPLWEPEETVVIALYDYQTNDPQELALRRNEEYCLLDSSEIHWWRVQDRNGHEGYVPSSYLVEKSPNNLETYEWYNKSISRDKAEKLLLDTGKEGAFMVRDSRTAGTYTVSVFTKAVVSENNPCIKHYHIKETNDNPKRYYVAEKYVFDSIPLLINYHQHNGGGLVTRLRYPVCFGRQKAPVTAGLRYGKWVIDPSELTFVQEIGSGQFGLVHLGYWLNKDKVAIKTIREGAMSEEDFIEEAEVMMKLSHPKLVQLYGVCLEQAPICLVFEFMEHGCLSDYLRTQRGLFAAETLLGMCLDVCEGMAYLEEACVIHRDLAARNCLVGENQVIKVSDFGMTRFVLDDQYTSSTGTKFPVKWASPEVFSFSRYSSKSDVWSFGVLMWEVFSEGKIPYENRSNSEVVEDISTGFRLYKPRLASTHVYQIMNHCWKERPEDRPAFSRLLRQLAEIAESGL
Sequence of Histamine H3 receptor (Homo sapiens) (Q9Y5N1 whole entry): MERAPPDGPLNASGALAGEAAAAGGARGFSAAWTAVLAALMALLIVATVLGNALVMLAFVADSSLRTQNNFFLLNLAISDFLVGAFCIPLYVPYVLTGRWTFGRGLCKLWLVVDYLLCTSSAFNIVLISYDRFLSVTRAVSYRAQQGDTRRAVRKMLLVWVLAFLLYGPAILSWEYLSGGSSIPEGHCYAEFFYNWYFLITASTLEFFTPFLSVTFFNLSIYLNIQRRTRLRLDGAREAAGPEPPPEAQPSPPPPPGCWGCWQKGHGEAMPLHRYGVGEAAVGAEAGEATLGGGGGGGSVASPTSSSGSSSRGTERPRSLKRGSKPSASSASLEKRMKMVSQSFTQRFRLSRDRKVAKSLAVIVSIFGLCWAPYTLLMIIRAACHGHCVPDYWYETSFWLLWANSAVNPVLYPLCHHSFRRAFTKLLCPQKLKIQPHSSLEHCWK
Sequence of Cyclin-dependent kinase 3 (Homo sapiens) (Q00526 whole entry, looked up): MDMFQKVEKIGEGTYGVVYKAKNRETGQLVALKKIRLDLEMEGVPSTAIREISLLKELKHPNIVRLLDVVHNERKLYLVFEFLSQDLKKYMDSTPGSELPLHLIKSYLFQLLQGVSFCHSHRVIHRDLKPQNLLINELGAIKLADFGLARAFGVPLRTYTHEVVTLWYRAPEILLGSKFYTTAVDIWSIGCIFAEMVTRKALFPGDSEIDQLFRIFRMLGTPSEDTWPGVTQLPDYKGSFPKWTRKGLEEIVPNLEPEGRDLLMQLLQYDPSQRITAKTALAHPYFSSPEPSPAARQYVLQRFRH

O=C(NC[C@@H]1[C@H]2CN(C(=O)OCc3cc(C(F)(F)F)cc(C(F)(F)F)c3)C[C@@H]12)c1ccc2[nH]nnc2c1 [BI 2545]
inactive: residual activity [1] 92% | residual activity [2] 91% | residual activity [3] 100% | residual activity [4] 100% | residual activity [5] 100% | residual activity [6] 100% | residual activity [7] 85% | residual activity [8] 81% | inhibition [9] 8.82% | inhibition [10] -5.26% | inhibition [11] 19% | residual activity [12] 90% | residual activity [13] 93% | residual activity [14] 100% | residual activity [15] 97% | residual activity [16] 100% | residual activity [17] 91% | residual activity [18] 85% | residual activity [19] 100% | residual activity [20] 91% | residual activity [21] 100% | residual activity [22] 89% | residual activity [23] 100% | residual activity [24] 90% | residual activity [25] 80% | residual activity [26] 100% | residual activity [27] 100% | residual activity [28] 100% | residual activity [29] 94% | residual activity [30] 88% | residual activity [31] 98% | residual activity [32] 94% | residual activity [33] 87% | residual activity [34] 100% | residual activity [35] 100% | residual activity [36] 94% | residual activity [37] 100% | residual activity [38] 100% | residual activity [39] 100%

Cc1nccc(COC(=O)N2C[C@@H]3[C@@H](CNC(=O)c4ccc5[nH]nnc5c4)[C@@H]3C2)n1 [BI 3017]
inactive: residual activity [1] 97% | residual activity [2] 85% | residual activity [3] 90% | residual activity [4] 97% | residual activity [5] 78% | residual activity [6] 78% | residual activity [7] 71% | residual activity [8] 100% | inhibition [9] 16.4% | inhibition [10] 9.03% | inhibition [11] 9.56% | residual activity [12] 100% | residual activity [13] 95% | residual activity [14] 100% | residual activity [15] 100% | residual activity [16] 100% | residual activity [17] 100% | residual activity [18] 100% | residual activity [19] 100% | residual activity [20] 100% | residual activity [21] 72% | residual activity [22] 82% | residual activity [23] 92% | residual activity [24] 95% | residual activity [25] 100% | residual activity [26] 100% | residual activity [27] 100% | residual activity [28] 79% | residual activity [29] 98% | residual activity [30] 93% | residual activity [31] 100% | residual activity [32] 97% | residual activity [33] 88% | residual activity [34] 75% | residual activity [35] 100% | residual activity [36] 97% | residual activity [37] 100% | residual activity [38] 100% | residual activity [39] 100%
